# Publication PMC2766634 (Journal of medicinal chemistry, 2009)
# Values joined by “and” are separate entries in the source; they are usually repeats but may differ in a detail not shown here. Equal values may be shown once. Marks after values point to notes of the source that are not given here.
# Legend:
# [1] = tested on: G. lamblia (WB/C6, GS/M, 106, and 713); test: Antigiardial growth inhibition; assay type: cell-based, Giardia lamblia; details: for selectivity ratio, IC50/EC50: IC50 in HeLa cells / EC50 in Giardia
# [2] = Cyclic voltammetry in water pH 7.0; assay type: physicochemical; details: pH 7.0 phosphate buffer, 0.1 M KCl, 25 °C
# [3] = Cyclic voltammetry in DMSO; assay type: physicochemical; details: for E1/2 in DMSO (half-wave potential, 0/−1 reduction), mean ± SE: cyclic voltammetry, 0.10 M NBu4PF6 in DMSO, 25 °C, 100 mV/s; for E1/2 more positive than Mz: in DMSO, relative to Mz
# [4] = tested on: HeLa cells; test: Cytotoxicity assay; assay type: cell-based, human; details: for IC50: Homo sapiens, HeLa, 48 h, read-out: toxicity in HeLa cells, pIC50 (mean ± SE) (converted)
# [5] = tested on: G. lamblia GS/M; test: Murine G. lamblia infection model; assay type: in vivo, Giardia lamblia in C57BL/6 mice; details: mice, five doses over 3 days; for effect on infection (trophozoites in small intestine) at 2 mg/kg: 2 mg/kg oral gavage; for effect on infection (trophozoites in small intestine) at 10 mg/kg: 10 mg/kg oral gavage
Compound,"Ep in water (peak potential), mean ± SE [2]","E1/2 in DMSO (half-wave potential, 0/−1 reduction), mean ± SE [3]",other results
"Cn1c([N+](=O)[O-])cnc1/C=C/c1ccsc1 [compound 31, 1-Methyl-5-nitro-2-[(E)-2-(3-thienyl)vinyl]-1H-imidazole]",−0.595 ± 0.001 V vs SCE,−1.508 ± 0.002 V vs Fc,"selectivity ratio, IC50/EC50 [1]: >1,023"
"2-[(E)-2-(3a,7a-Dihydro-1,3-benzodioxol-5-yl)vinyl]-1-methyl-5-nitro-1H-imidazole [compound 27]",−0.778 ± 0.002 V vs SCE,−1.584 ± 0.001 V vs Fc,"selectivity ratio, IC50/EC50 [1]: 1,072; Activity against G. lamblia pEC50 (mean ± SE) ([1]; mean ± SE of average pEC50 of four isolates (WB/C6, GS/M, 106, 713)): 7.16 ± 0.34; toxicity in HeLa cells, pIC50 (mean ± SE) ([4]; 2 days culture, three separate experiments): 4.13 ± 0.10"
"Cc1ccc(/C=C/c2ncc([N+](=O)[O-])n2C)cc1 [compound 8, 1-Methyl-2-[(E)-2-(4-methylphenyl)vinyl]-5-nitro-1H-imidazole]",,−1.522 ± 0.003 V vs Fc,"selectivity ratio, IC50/EC50 [1]: >617"
"Cc1cccc(/C=C/c2ncc([N+](=O)[O-])n2C)c1 [compound 7, 1-Methyl-2-[(E)-2-(3-methylphenyl)vinyl]-5-nitro-1H-imidazole]",−0.635 ± 0.003 V vs SCE,−1.516 ± 0.001 V vs Fc,
"Cn1c([N+](=O)[O-])cnc1/C=C/c1ccccc1Br [compound 10, 2-[(E)-2-(2-Bromophenyl)vinyl]-1-methyl-5-nitro-1H-imidazole]",,−1.481 ± 0.001 V vs Fc,
"CCOC(OCC)c1ccc(/C=C/c2ncc([N+](=O)[O-])n2C)cc1 [compound 23, 2-{(E)-2-[4-(Diethoxymethyl)phenyl]vinyl}-1-methyl-5-nitro-1H-imidazole]",,−1.518 ± 0.003 V vs Fc,IC50 [4]: 97.7 µM
"Cc1ccccc1/C=C/c1ncc([N+](=O)[O-])n1C [compound 6, 1-Methyl-2-[(E)-2-(2-methylphenyl)vinyl]-5-nitro-1H-imidazole]",−0.621 ± 0.001 V vs SCE,−1.512 ± 0.001 V vs Fc,IC50 [4]: 93.3 µM
"Cn1c([N+](=O)[O-])cnc1CCc1ccc(Br)cc1 [compound 42, 2-[2-(4-Bromophenyl)ethyl]-1-methyl-5-nitro-1H-imidazole]",,−1.592 ± 0.003 V vs Fc,IC50 [4]: 97.7 µM
"Cn1c([N+](=O)[O-])cnc1/C=C/c1cccc2ccccc12 [compound 25, 1-Methyl-2-[(E)-2-(1-naphthyl)vinyl]-5-nitro-1H-imidazole]",,−1.502 ± 0.004 V vs Fc,"selectivity ratio, IC50/EC50 [1]: 1,000"
"Cn1c([N+](=O)[O-])cnc1/C=C/c1ccc(Cl)cc1 [compound 15, 2-[(E)-2-(4-Chlorophenyl)vinyl]-1-methyl-5-nitro-1H-imidazole]",−0.584 ± 0.001 V vs SCE,−1.503 ± 0.001 V vs Fc,
"Cn1c([N+](=O)[O-])cnc1/C=C/c1ccc(Cl)cc1Cl [compound 16, 2-[(E)-2-(2,4-Dichlorophenyl)vinyl]-1-methyl-5-nitro-1H-imidazole]",,−1.469 ± 0.002 V vs Fc,E1/2 more positive than Mz [3]: ~ 90 mV
"Cn1c([N+](=O)[O-])cnc1/C=C/c1cccc(F)c1 [compound 19, 2-[(E)-2-(3-Fluorophenyl)vinyl]-1-methyl-5-nitro-1H-imidazole]",−0.613 ± 0.008 V vs SCE,−1.502 ± 0.001 V vs Fc,effect on infection (trophozoites in small intestine) at 2 mg/kg [5]: significant activity; effect on infection (trophozoites in small intestine) at 10 mg/kg [5]: complete clearance of the infection
"COc1cccc(/C=C/c2ncc([N+](=O)[O-])n2C)c1 [compound 20, 2-[(E)-2-(3-Methoxyphenyl)vinyl]-1-methyl-5-nitro-1H-imidazole]",−0.763 ± 0.001 V vs SCE,−1.580 ± 0.007 V vs Fc,
"CC(=O)OC(c1ccc(Br)cc1)C(OC(C)=O)c1ncc([N+](=O)[O-])n1C (stereo not shown) [compound 37, 1-(1-Methyl-5-nitro-1H-imidazol-2-yl)-2-(4-bromophenyl)-ethane-1,2-diyl Diacetate]",,,IC50 [4]: 97.7 µM
"Cn1c([N+](=O)[O-])cnc1C(O)C(O)c1ccc(Br)cc1 (stereo not shown) [compound 35, 1-(4-Bromophenyl)-2-(1-methyl-5-nitro-1H-imidazol-2-yl)-ethane-1,2-diol]",,−1.544 ± 0.001 V vs Fc,
"Cn1c([N+](=O)[O-])cnc1/C=C/c1ccccc1 [compound 5, 1-Methyl-5-nitro-2-[(E)-2-phenylvinyl]-1H-imidazole]",−0.634 ± 0.004 V vs SCE,−1.517 ± 0.001 V vs Fc,E1/2 more positive than Mz [3]: 30–50 mV; effect on infection (trophozoites in small intestine) at 10 mg/kg [5]: complete clearance of the infection
"Cc1ncc([N+](=O)[O-])n1CCO [Mz, metronidazole, reference compound]",,,effect on infection (trophozoites in small intestine) at 2 mg/kg [5]: no significant effect; effect on infection (trophozoites in small intestine) at 10 mg/kg [5]: not parasite eradication

Compound,"Ep in water (peak potential), mean ± SE [2]","E1/2 in DMSO (half-wave potential, 0/−1 reduction), mean ± SE [3]",other results
"Cc1ccc(CCc2ncc([N+](=O)[O-])n2C)cc1 [compound 41, 1-Methyl-2-[2-(4-methylphenyl)ethyl]-5-nitro-1H-imidazole]",,−1.592 ± 0.003 V vs Fc,
"Cn1c([N+](=O)[O-])cnc1CCc1ccccc1 [compound 40, 1-Methyl-5-nitro-2-(2-phenylethyl)-1H-imidazole]",,−1.593 ± 0.002 V vs Fc,
"Cc1ccc(C(O)C(O)c2ncc([N+](=O)[O-])n2C)cc1 (stereo not shown) [compound 34, 1-(1-Methyl-5-nitro-1H-imidazol-2-yl)-2-(4-methylphenyl)-ethane-1,2-diol]",,−1.557 ± 0.001 V vs Fc,
"Cn1c([N+](=O)[O-])cnc1/C=C/c1cccc(Cl)c1 [compound 14, 2-[(E)-2-(3-Chlorophenyl)vinyl]-1-methyl-5-nitro-1H-imidazole]",,−1.492 ± 0.002 V vs Fc,
"Cn1cncc1[N+](=O)[O-] [1-methyl-5-NI, reference compound]",,−1.557 V vs Fc and −1.557 ± 0.001 V vs Fc,
"Cn1c([N+](=O)[O-])cnc1/C=C/c1cccc(Br)c1 [compound 11, 2-[(E)-2-(3-Bromophenyl)vinyl]-1-methyl-5-nitro-1H-imidazole]",,−1.497 ± 0.005 V vs Fc,
"COc1ccc(/C=C/c2ncc([N+](=O)[O-])n2C)c(OC)c1OC [compound 22, 1-Methyl-5-nitro-2-[(E)-2-(2,3,4-trimethoxyphenyl)vinyl]-1H-imidazole]",−0.757 ± 0.003 V vs SCE,−1.584 ± 0.005 V vs Fc,
"Cn1c([N+](=O)[O-])cnc1/C=C/c1cccc(I)c1 [compound 18, 2-[(E)-2-(3-Iodophenyl)vinyl]-1-methyl-5-nitro-1H-imidazole]",,−1.494 ± 0.004 V vs Fc,IC50 [4]: 31.6 µM
"Cn1c([N+](=O)[O-])cnc1/C=C/c1ccc(OC(F)(F)F)cc1 [compound 21, 1-Methyl-5-nitro-2-{(E)-2-[4-(trifluoromethoxy)phenyl]vinyl}-1H-imidazole]",,−1.487 ± 0.001 V vs Fc,
"Cn1c([N+](=O)[O-])cnc1/C=C/c1cccs1 [compound 30, 1-Methyl-5-nitro-2-[(E)-2-(2-thienyl)vinyl]-1H-imidazole]",−0.658 ± 0.001 V vs SCE,−1.528 ± 0.003 V vs Fc,"selectivity ratio, IC50/EC50 [1]: 1,122"
"Cc1cc(C)c(/C=C/c2ncc([N+](=O)[O-])n2C)c(C)c1 [compound 9, 1-Methyl-2-[(E)-2-(2,4,6-trimethylphenyl)vinyl]-5-nitro-1H-imidazole]",,−1.529 ± 0.001 V vs Fc,IC50 [4]: 11 µM; E1/2 more positive than Mz [3]: 30–50 mV
"Cn1c([N+](=O)[O-])cnc1/C=C/c1ccccc1Cl [compound 13, 2-[(E)-2-(2-Chlorophenyl)vinyl]-1-methyl-5-nitro-1H-imidazole]",,−1.486 ± 0.004 V vs Fc,
"Cn1c([N+](=O)[O-])cnc1/C=C/c1ccccc1-c1ccccc1 [compound 24, 2-[(E)-2-Biphenyl-2-ylvinyl]-1-methyl-5-nitro-1H-imidazole]",,−1.512 ± 0.001 V vs Fc,
"Cc1ccc(C(Br)C(Br)c2ncc([N+](=O)[O-])n2C)cc1 (stereo not shown) [compound 3, reference compound]",,−1.489 ^d ± 0.001 V vs Fc,increased antigiardial activity over Mz ([1]; relative to Mz): 40 fold; selectivity ratio lower than that of Mz ([1]; relative to Mz): > 10 fold; more toxic than Mz in HeLa ([4]; relative to Mz): > 500 fold
"Cn1c([N+](=O)[O-])cnc1C(Br)C(Br)c1ccc(Br)cc1 (stereo not shown) [compound 33, 2-[1,2-Dibromo-2-(4-bromophenyl)ethyl]-1-methyl-5-nitro-1H-imidazole]",,−1.493 ^d ± 0.004 V vs Fc,
"Cn1c([N+](=O)[O-])cnc1/C=C/c1ccc2ccccc2c1 [compound 26, 1-Methyl-2-[(E)-2-(2-naphthyl)vinyl]-5-nitro-1H-imidazole]",,−1.509 ± 0.001 V vs Fc,"selectivity ratio, IC50/EC50 [1]: 1,622; IC50 [4]: 97.7 µM"
